ChEMBL document CHEMBL1133991, “Bioisosteres of 9-carboxymethyl-4-oxo-imidazo[1,2-a]indeno-[1,2-e]pyrazin-2-carboxylic acid derivatives. Progress towards selective, potent in vivo AMPA antagonists with longer durations of action” (Bioorg Med Chem Lett, 2001)
The source made the active and inactive calls. The rule behind the calls is not given here.

Experiments:
Mus musculus [1] = assay: Dose which protected 50 % of the mice from a tonic convulsion, pretreatment was before 3 hr by i.v. administration in MES test.; format: functional; conditions: iv
Mus musculus [2] = species on record: Mus musculus; assay: (§1) Dose which protected 50 % of the mice from a tonic convulsion.; format: functional
Glutamate NMDA receptor = assay: In vitro binding affinity towards NMDA glutamate receptor using [3H]5,7-dichlorokynurenate as ligand on rat cortical membrane preparations
Mus musculus [3] = species on record: Mus musculus; assay: as §1; format: functional; remark: listed apart in the source
[4] = molecular target: T1, Glutamate receptor ionotropic, AMPA (Rattus norvegicus, UniProt P19490+P19491+P19492+P19493)
Description: Affinity towards Ionotropic glutamate receptor AMPA using [3H]AMPA as ligand on rat cortical membrane preparations

[5] = molecular target: T1, Glutamate receptor ionotropic, AMPA; remark: listed apart in the source
Description: Compound was evaluated for potent antagonist intrinsic activity against Ionotropic glutamate receptor AMPA

Mus musculus [6] = assay: Dose which protected 50 % of the mice from a tonic convulsion, pretreatment was before 3 hr by i.v. administration in MES test at 40 mg/kg (Inactive); format: functional, organism-based; design: dose 40 mg/kg

IC50 (Glutamate NMDA receptor) [nM] | IC50 [4] [nM] | SMILES | ED50 (Mus musculus [1]) [mg/kg] | ED50 (Mus musculus [2]) [mg/kg] | ED50 (Mus musculus [3]) [mg/kg] | IC50 [5] [nM] | ED50 (Mus musculus [6])
> 10000 | 30 | O=C(O)/C=C/c1cn2c3c(nc(O)c2n1)-c1cccc(CC(=O)O)c1C3 | 25.6 | 2.2 | 3.8 |  | 
1600 | 31 | O=C(O)CCc1cn2c3c(nc(O)c2n1)-c1cccc(CC(=O)O)c1C3 |  | 1.9 |  |  | 
1200 | 235 | CS(=O)(=O)NC(=O)Cc1cccc2c1Cc1c-2nc(O)c2nc(C(=O)O)cn12 |  |  |  |  | 
> 10000 | 147 | O=C(O)Cc1cccc2c1Cc1c-2nc(O)c2nc(CP(=O)(O)O)cn12 | 22.4 | 4.7 | 2.5 |  | 
328 | 189 | CNC(=O)Cc1cccc2c1Cc1c-2nc(O)c2nc(C(=O)O)cn12 | > 20 | 10 | 5 |  | 
> 10000 | 150 | O=C(O)Cc1cccc2c1Cc1c-2nc(O)c2nc(P(=O)(O)O)cn12 | 3.5 | 3.5 | 2.9 |  | 

Further lines, the compound ahead of its results:

SMILES | IC50 (Glutamate NMDA receptor) [nM] | IC50 [4] [nM] | ED50 (Mus musculus [1]) [mg/kg] | ED50 (Mus musculus [2]) [mg/kg] | ED50 (Mus musculus [3]) [mg/kg] | IC50 [5] [nM] | ED50 (Mus musculus [6])
O=c1[nH]c2cc(-n3ccnc3)c([N+](=O)[O-])cc2[nH]c1=O [YM-90K] |  |  | > 40 |  |  |  | 
O=C(O)Cc1cccc2c1Cc1c-2nc(O)c2nc(-c3ccc(C(=O)O)cc3)cn12 | 5800 | 12 | 15 | 5 | 5 |  | 
O=C(O)[C@@H]1C[C@H]2C[C@@H](CCc3nn[nH]n3)CC[C@H]2CN1 [TEZAMPANEL ANHYDROUS] |  |  |  |  | 3.4 |  | 
O=P(O)(O)c1cn2c3c(nc(O)c2n1)-c1cccc(Cc2nn[nH]n2)c1C3 | 2360 | 13 | 3.5 | 1 | 0.8 | 6 | 
O=C(O)c1cn2c3c(nc(O)c2n1)-c1cccc(Cc2nn[nH]n2)c1C3 | 537 | 15 |  | 2.3 | 2 |  | inactive
O=C(O)Cc1cn2c3c(nc(O)c2n1)-c1cccc(CC(=O)O)c1C3 |  |  | 28 |  | 0.5 |  | 
O=C(Cc1cccc2c1Cc1c-2nc(O)c2nc(C(=O)O)cn12)NS(=O)(=O)c1ccccc1 | 2000 | 139 |  |  |  |  | 
O=C(O)Cc1cccc2c1Cc1c-2nc(O)c2nc(-c3ccccc3C(=O)O)cn12 | 6100 | 100 |  |  |  |  | 
O=C(O)Cc1cccc2c1Cc1c-2nc(O)c2nc(-c3cccc(C(=O)O)c3)cn12 | 7200 | 40 |  | 8.6 |  |  | 
O=C(O)c1cn2c3c(nc(O)c2n1)-c1cccc(CP(=O)(O)O)c1C3 | > 10000 | 586 |  | 5.6 |  |  | 
O=C(O)Cc1cccc2c1Cc1c-2nc(O)c2nc(C(=O)O)cn12 |  |  | 25.6 |  |  |  | 
